The supplement of paper PMC13380429
± gives the standard deviation of the averaged measurements.

Experiments:
Details in all cases: 72 h
Caco-2 [1] = assay: cell viability relative to DMSO; higher = less toxic
Calu-3 [2] = assay: as above
U2OS [3] = assay: as above
Vero E6 [4] = assay: as above
HepG2 [5] = assay: as above
Caco-2 [6] = assay: relative viability EC50 (midpoint between 100% and the lowest measured viability); higher = less toxic
Calu-3 [7] = assay: as above
U2OS [8] = assay: as above
Vero E6 [9] = assay: as above
HepG2 [10] = assay: as above
Caco-2 [11] = assay: drug sensitivity score (DSS) for viability; higher = more toxic; extreme values may be limits of the assay
Calu-3 [12] = assay: as above
U2OS [13] = assay: as above
Vero E6 [14] = assay: as above
HepG2 [15] = assay: as above

| SMILES | cell viability (Caco-2 [1]; 1 nM) | cell viability (Caco-2 [1]; 10 nM) | cell viability (Caco-2 [1]; 100 nM) | cell viability (Caco-2 [1]; 1000 nM) | cell viability (Caco-2 [1]; 10000 nM) | cell viability (Calu-3 [2]; 1 nM) | cell viability (Calu-3 [2]; 10 nM) | cell viability (Calu-3 [2]; 100 nM) | cell viability (Calu-3 [2]; 1000 nM) | cell viability (Calu-3 [2]; 10000 nM) | cell viability (U2OS [3]; 1 nM) | cell viability (U2OS [3]; 10 nM) | cell viability (U2OS [3]; 100 nM) | cell viability (U2OS [3]; 1000 nM) | cell viability (U2OS [3]; 10000 nM) | cell viability (Vero E6 [4]; 1 nM) | cell viability (Vero E6 [4]; 10 nM) | cell viability (Vero E6 [4]; 100 nM) | cell viability (Vero E6 [4]; 1000 nM) | cell viability (Vero E6 [4]; 10000 nM) | cell viability (HepG2 [5]; 1 nM) | cell viability (HepG2 [5]; 10 nM) | cell viability (HepG2 [5]; 100 nM) | cell viability (HepG2 [5]; 1000 nM) | cell viability (HepG2 [5]; 10000 nM) | relative viability EC50 (Caco-2 [6]) | relative viability EC50 (Calu-3 [7]) | relative viability EC50 (U2OS [8]) | relative viability EC50 (Vero E6 [9]) | relative viability EC50 (HepG2 [10]) | drug sensitivity score (Caco-2 [11]) | drug sensitivity score (Calu-3 [12]) | drug sensitivity score (U2OS [13]) | drug sensitivity score (Vero E6 [14]) | drug sensitivity score (HepG2 [15]) |
| --- | --- | --- | --- | --- | --- | --- | --- | --- | --- | --- | --- | --- | --- | --- | --- | --- | --- | --- | --- | --- | --- | --- | --- | --- | --- | --- | --- | --- | --- | --- | --- | --- | --- | --- | --- |
| N[C@H]1C[C@@H]1c1ccc(-c2cccc(O)c2)cc1 [OG-L002] | 104% | 100% | 102% | 101% | 105% | 108% | 106% | 99.3% | 95.3% | 108% | 101% | 94.3% | 98.3% | 97.8% | 96.4% | 96% | 103% | 95.9% | 104% | 107% | 103% | 97.6% | 100% | 115% | 114% | > 10 µM | > 10 µM | > 10 µM | > 10 µM | > 10 µM | 0 | 0 | 0 | 0 | 0 |
| CC1(C)S[C@@H]2[C@H](NC(=O)[C@H](NC(=O)N3CCN(S(C)(=O)=O)C3=O)c3ccccc3)C(=O)N2[C@H]1C(=O)O [mezlocillin] | 100% | 102% | 87.8% | 89.4% | 96.3% | 93.8% | 88.9% | 93.1% | 100% | 94.1% | 96.4% | 97.9% | 92.7% | 103% | 94.8% | 99.6% | 107% | 99.5% | 100% | 100% | 99.6% | 94.2% | 91.1% | 98.6% | 104% | > 10 µM | > 10 µM | > 10 µM | > 10 µM | > 10 µM | 1.1 | 0 | 0 | 0 | 0 |
| NS(=O)(=O)c1cc(C(=O)O)cc(N2CCCC2)c1Oc1ccccc1 [piretanide] | 90.2% | 97.4% | 106% | 104% | 110% | 90% | 98.7% | 90.5% | 94.8% | 101% | 95.5% | 96.7% | 101% | 98.4% | 103% | 98.5% | 100% | 93.3% | 101% | 105% | 101% | 99.7% | 85.1% | 105% | 110% | > 10 µM | > 10 µM | > 10 µM | > 10 µM | > 10 µM | 0 | 0 | 0 | 0 | 0 |
| N=C1N[C@H]2[C@H](CS[C@H]2CCCCC(=O)O)N1 [2-iminobiotin] | 93.6% | 105% | 96.8% | 98.8% | 98% | 105% | 98.8% | 101% | 118% | 106% | 102% | 102% | 99.5% | 104% | 98.3% | 110% | 106% | 105% | 97.5% | 102% | 100% | 102% | 106% | 97.6% | 106% | > 10 µM | > 10 µM | > 10 µM | > 10 µM | > 10 µM | 0 | 0 | 0 | 0 | 0 |
| COc1cc(C)c(/C=C/C(C)=C/C=C/C(C)=C/C(=O)O)c(C)c1C [acitretin] | 89.3% | 93.2% | 99.3% | 89.4% | 91.4% | 97.5% | 94.8% | 83.9% | 83.5% | 75.3% | 100% | 101% | 94.4% | 93.7% | 92.1% | 103% | 99.6% | 99.6% | 99.3% | 102% | 101% | 96.7% | 98.7% | 106% | 105% | > 10 µM | > 10 µM | > 10 µM | > 10 µM | > 10 µM | 0 | 3.8 | 0 | 0 | 0 |
| COC(=O)/C=C/c1cccc(N(Cc2ccc(-c3ccc(N(C)C)cc3)cc2)C(=O)C2CCCCC2)c1 [fexaramine] | 104% | 99.9% | 104% | 92% | 81.1% | 110% | 95.4% | 104% | 96.5% | 92.3% | 103% | 97.5% | 99.9% | 97% | 88.5% | 107% | 103% | 99.4% | 98.3% | 88.8% | 105% | 104% | 97.4% | 101% | 83.5% | > 10 µM | > 10 µM | > 10 µM | > 10 µM | > 10 µM | 1.3 | 0 | 0.1 | 0.1 | 0.3 |
| NC(=O)NCCC[C@H](N)C(=O)O [L-citrulline] | 99% | 104% | 92.3% | 101% | 92.4% | 101% | 92.2% | 98.6% | 96.9% | 110% | 98.7% | 102% | 95.5% | 105% | 95.6% | 98.6% | 96% | 97.2% | 97.8% | 102% | 100% | 95.2% | 92.7% | 91.4% | 94% | > 10 µM | > 10 µM | > 10 µM | > 10 µM | > 10 µM | 0 | 0 | 0 | 0 | 0 |
| Fc1cc(F)c2c(c1)[C@H]1C=CC[C@H]1C(c1cccnc1)N2 (stereo not given in full) [Golgicide A] | 108% | 103% | 101% | 98.2% | 31.5% | 103% | 108% | 108% | 98.2% | 19% | 103% | 101% | 105% | 105% | 1.7% | 111% | 108% | 105% | 100% | 4.4% | 121% | 108% | 102% | 105% | 10.9% | 2.97 µM | 3.01 µM | 3.46 µM | 3.2 µM | 3.48 µM | 4 | 4.7 | 5.1 | 5.3 | 4.5 |
| Cc1nc2c([nH]1)-c1ccccc1N(C(=O)c1ccc(NC(=O)c3ccccc3-c3ccccc3)cc1)CC2 [conivaptan] | 97.5% | 94.3% | 91.2% | 102% | 91.7% | 102% | 106% | 105% | 94.1% | 96.6% | 101% | 103% | 96.3% | 104% | 97.6% | 97.9% | 100% | 97.3% | 89.4% | 100% | 97.9% | 97.1% | 101% | 93.6% | 101% | > 10 µM | > 10 µM | > 10 µM | > 10 µM | > 10 µM | 0 | 0 | 0 | 0 | 0 |
| O=C1NCN(c2ccccc2)C12CCN(CC1COc3ccccc3O1)CC2 (stereo not given) [spiroxatrine] | 95.2% | 101% | 101% | 100% | 98.2% | 98.3% | 99% | 92% | 100% | 104% | 106% | 98% | 99.3% | 94.8% | 99% | 103% | 99.8% | 104% | 97.9% | 109% | 87.5% | 94.3% | 87.6% | 104% | 103% | > 10 µM | > 10 µM | > 10 µM | > 10 µM | > 10 µM | 0 | 0 | 0 | 0 | 0 |
| CC(C)(C)NC(=O)[C@@H](c1cccnc1)N(C(=O)c1ccco1)c1ccc(C(C)(C)C)cc1 [ML188] | 99.7% | 95% | 98.2% | 101% | 89.9% | 93.6% | 93.4% | 96.9% | 102% | 89.7% | 93.9% | 100% | 96.6% | 101% | 98.8% | 93.1% | 97.7% | 103% | 108% | 97.6% | 96.3% | 101% | 92.1% | 106% | 95% | > 10 µM | > 10 µM | > 10 µM | > 10 µM | > 10 µM | 0 | 0 | 0 | 0 | 0 |
| C[C@@H](C1=C(CCN(C)C)Cc2ccccc21)c1ccccn1 (racemic) [dimetindene] | 93.1 ± 6.5% | 98.2 ± 4.7% | 96.3 ± 4.6% | 102 ± 10% | 104.8 ± 0.92% | 98.2 ± 2% | 113 ± 4% | 103.2 ± 0.21% | 105 ± 3.2% | 96 ± 2% | 99.5 ± 0.57% | 104 ± 1.8% | 99.3 ± 7.8% | 100 ± 1.4% | 94.8 ± 2.6% | 97.2 ± 8% | 98.2 ± 1.2% | 100.2 ± 0.78% | 100% | 96.5 ± 8% | 104 ± 4.7% | 98 ± 4.8% | 106 ± 5.9% | 89.7 ± 3.2% | 103 ± 2.5% | > 10 µM | > 10 µM | > 10 µM | > 10 µM | > 10 µM | 0 | 0 | 0 | 0 | 0 |
| Nc1nonc1/C(=N/O)Nc1ccc(F)c(Cl)c1 [IDO5L] | 101% | 95.2% | 115% | 87.7% | 109% | 92.5% | 96% | 108% | 89.6% | 114% | 93.1% | 95.7% | 102% | 95.5% | 102% | 106% | 102% | 96.7% | 98.8% | 114% | 92.8% | 97.8% | 104% | 89.9% | 91.2% | > 10 µM | > 10 µM | > 10 µM | > 10 µM | > 10 µM | 0 | 0 | 0 | 0 | 0 |
| NC(=O)c1cn(Cc2c(F)cccc2F)nn1 [rufinamide] | 111% | 97.4% | 93.3% | 97.1% | 104% | 101% | 97.7% | 99.1% | 101% | 100% | 99.6% | 100% | 101% | 98% | 104% | 101% | 101% | 101% | 97.9% | 103% | 109% | 102% | 94.1% | 101% | 97.4% | > 10 µM | > 10 µM | > 10 µM | > 10 µM | > 10 µM | 0 | 0 | 0 | 0 | 0 |
